Patent US12084420B2, “Indoline compounds for inhibiting KIF18A” (Volastra Therapeutics, Inc., priority 2021, dated 2024)
pIC50, pKi: −log10 of the molar value. Where two headings read alike, the source gives them in different places. Blank lines part the entries; values can stand above or below the compound they belong to.

What was measured:
[1] = molecular target: hKIF18A (1-374) (Homo sapiens (Human), UniProt Q8NI77); experiment: Inhibition of KIF18A microtubule-dependent ATPase activity (ADP-Glo)
hKIF18A (1-374), sequence (Q8NI77 whole entry, looked up): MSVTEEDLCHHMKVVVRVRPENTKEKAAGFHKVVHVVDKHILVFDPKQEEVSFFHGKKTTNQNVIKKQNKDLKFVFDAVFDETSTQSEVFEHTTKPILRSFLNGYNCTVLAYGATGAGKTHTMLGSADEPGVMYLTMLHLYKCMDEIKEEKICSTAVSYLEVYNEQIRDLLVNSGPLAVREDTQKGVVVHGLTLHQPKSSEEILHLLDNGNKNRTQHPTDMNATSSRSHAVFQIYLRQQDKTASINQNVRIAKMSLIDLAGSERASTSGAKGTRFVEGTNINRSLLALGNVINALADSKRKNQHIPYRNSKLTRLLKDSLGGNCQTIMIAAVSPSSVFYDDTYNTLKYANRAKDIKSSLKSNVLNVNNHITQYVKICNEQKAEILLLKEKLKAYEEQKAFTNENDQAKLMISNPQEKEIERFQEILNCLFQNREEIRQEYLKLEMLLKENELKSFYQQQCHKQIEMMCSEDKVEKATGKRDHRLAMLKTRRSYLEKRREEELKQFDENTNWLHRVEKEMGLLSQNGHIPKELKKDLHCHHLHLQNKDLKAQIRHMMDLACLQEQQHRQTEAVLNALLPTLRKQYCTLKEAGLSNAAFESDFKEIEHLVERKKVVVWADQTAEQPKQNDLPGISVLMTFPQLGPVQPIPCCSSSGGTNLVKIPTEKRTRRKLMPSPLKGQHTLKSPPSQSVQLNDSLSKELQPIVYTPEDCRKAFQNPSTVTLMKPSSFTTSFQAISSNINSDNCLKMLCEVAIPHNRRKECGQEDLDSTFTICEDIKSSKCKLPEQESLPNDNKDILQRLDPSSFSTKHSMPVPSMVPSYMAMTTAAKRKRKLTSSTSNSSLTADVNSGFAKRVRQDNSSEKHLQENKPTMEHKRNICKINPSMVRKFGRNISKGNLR
hKIF18A (1-374), sequence (Q2XVP4 whole entry partner, looked up): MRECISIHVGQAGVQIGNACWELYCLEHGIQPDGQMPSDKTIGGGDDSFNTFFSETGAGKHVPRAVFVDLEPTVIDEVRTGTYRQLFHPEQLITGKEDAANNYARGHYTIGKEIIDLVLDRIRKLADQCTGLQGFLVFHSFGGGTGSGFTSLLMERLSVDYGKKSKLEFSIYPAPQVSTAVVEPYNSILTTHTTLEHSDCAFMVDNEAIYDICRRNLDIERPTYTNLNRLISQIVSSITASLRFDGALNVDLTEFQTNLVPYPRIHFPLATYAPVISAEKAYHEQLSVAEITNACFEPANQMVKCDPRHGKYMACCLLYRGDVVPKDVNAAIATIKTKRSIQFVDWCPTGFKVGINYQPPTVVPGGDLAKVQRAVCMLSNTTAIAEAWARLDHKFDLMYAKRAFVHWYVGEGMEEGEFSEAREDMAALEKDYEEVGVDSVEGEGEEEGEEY
hKIF18A (1-374), sequence (P02554 whole entry partner, looked up): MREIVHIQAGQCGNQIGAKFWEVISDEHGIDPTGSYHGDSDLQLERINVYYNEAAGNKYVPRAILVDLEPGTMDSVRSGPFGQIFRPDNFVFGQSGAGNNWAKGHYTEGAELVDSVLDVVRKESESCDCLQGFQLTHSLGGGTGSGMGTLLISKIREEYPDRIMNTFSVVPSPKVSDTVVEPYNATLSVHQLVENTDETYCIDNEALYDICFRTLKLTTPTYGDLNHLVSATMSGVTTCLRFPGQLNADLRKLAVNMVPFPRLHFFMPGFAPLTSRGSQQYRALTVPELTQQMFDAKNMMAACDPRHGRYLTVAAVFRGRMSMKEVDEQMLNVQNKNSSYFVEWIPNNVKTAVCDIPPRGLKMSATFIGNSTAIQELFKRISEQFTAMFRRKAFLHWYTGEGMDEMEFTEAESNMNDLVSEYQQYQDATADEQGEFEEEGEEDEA
Method: Biological Assays Inhibition of KIF18A Microtubule-Dependent ATPase Activity:
Test compounds were plated in a 3× dilution scheme in a 384-well plate. Assay buffer: 80 mM PIPES (pH 6.9), 1 mM MgCl2, 75 mM KCl, 1 mM EGTA, 1 mM DTT, 0.01% BSA, 0.005% Tween-20, 1 μM Taxol in H2O. […] After incubation at room temperature for 30 min, 2.5 μL of microtubule mix was added [0.2 mg/mL pre-formed microtubules, 2.0 mM ATP in assay buffer], the plate was centrifuged for 30 s and then incubated at 28° C. for 60 min. 5 μL of Promega® ADP-Glo Max R1 was added, the plate was centrifuged for 30 s, and the mixture incubated for 4 h at room temperature. 10 μL of Promega® ADP-Glo Max R2 was added, the plate centrifuged for 30 s, and incubated for 60 min at room temperature. Luminescence was measured with an Envision plate reader, and % Inhibition was calculated for each well as: ([max−min]−[test−min])/[max−min]. IC50 values were calculated from concentration vs. % Inhibition data via a four-parameter variable slope model.

[2] = system: HCC15 cells; experiment: Cell viability of KIF18a-sensitive cell lines, HCC15 (Cell Titre-Glo, 7 days); type: cell-based; settings: HCC-15 cells, 7 days, Cell Titre-Glo, read-out: HCC-15 IC50
Procedure, shortened: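 Seeding was 24 h before dosing: HCC15 at 600 cells/well in RPMI-1640/10% FBS, OVCAR-3 at 1000 cells/well in RPMI-1640/20% FBS plus insulin, JIMT-1 at 1000 cells/well in DMEM/10% FBS. After serially diluted compound, cells grew 7 days at 37° C. Cell Titre-Glo luminescence was converted to ATP; IC50 came from a four-parameter fit.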

[3] = system: OVCAR-3 tumor cells implanted in Balb/C nude mice; experiment: In vivo activity, OVCAR-3 tumor xenograft, tumor growth inhibition; set-up: species or system mouse; settings: OVCAR3 model
Method: (§1) Assessment of In Vivo Activity
(§2) OVCAR-3 (ATCC) tumor cells were maintained in vitro in RPMI-1640 medium supplemented with 20% fetal bovine serum, 0.01 mg/mL bovine insulin and 1% Anti-Anti at 37° C. in an atmosphere of 5% CO2 in air. HCC15 (DSMZ) tumor cells were maintained in vitro in RPMI 1640 medium supplemented with 10% fetal bovine serum and 1% Anti-Anti at 37° C. in an atmosphere of 5% CO2 in air.
(§3) The tumor cells were sub-cultured twice weekly. The cells growing in an exponential growth phase were harvested and counted for tumor inoculation.
(§4) Tumor cells (10×10^6) in 0.2 mL of PBS mixed with Matrigel (50:50) were inoculated subcutaneously on the right flank of each mouse. When the average tumor volume reached 110-175 mm^3, animals were randomized into groups of 10 and treatment started. OVCAR-3 cells were implanted in Balb/C nude mice, and HCC15 cell were implanted in SCID Beige mice.
(§5) Compounds were dosed once or twice a day (12 h) orally. Tumor Growth Inhibition (TGI) was calculated using the formula: TGI (%)=[1−(TN−T0)/(VN−V0)]×100; TN is the average tumor volume of a treatment group at the indicated timepoint, T0 is the average tumor volume of the treatment group on treatment day 0, VN is the average tumor volume of the vehicle control group at the indicated timepoint, and V0 is the average tumor volume of the vehicle group on treatment day 0. P value was calculated based on tumor size by One-Way ANOVA with GraphPad Prism 9.4.0 compared with the vehicle group, respectively. **** indicates p<0.0001.
(§6) The tumor volume of vehicle- and compound-treated mice as a function of time after start of treatment and the results of treatments with selected compounds on SCID Beige mice or nude mice implanted with HCC15 or OVCAR-3 are shown in FIGS. 1A-1E.

[4] = system: NIH:OVCAR-3 cells; experiment: Cell viability of KIF18a-sensitive cell lines, NIH:OVCAR-3 (Cell Titre-Glo, 7 days); type: cell-based; settings: NIH-OVCAR3 cells, 7 days, Cell Titre-Glo, read-out: NIH-OVCAR3 IC50
Method: (§7) Cell Viability of KIF18a-Sensitive Cell Lines
(§8) Cell lines were seeded as follows 24 hours before compound treatment: HCC15 (Korean Cell Line Bank) 600 cell/well, 95 μL of RPMI-1640 media supplemented with 100 units/mL penicillin, 100 units/mL streptomycin and 10% FBS; NIH:OVCAR-3 (ATCC), 1000 cell/well, 95 μL of RPMI-1640 media supplemented with 100 units/mL penicillin, 100 units/mL streptomycin, 0.01 mg/mL bovine insulin, and 20% FBS; JIMT-1 (Addexbio) 1000 cell/well, 95 μL of DMEM media supplemented with 100 units/mL penicillin, 100 units/mL streptomycin, and 10% FBS.
(§9) Test compounds were added to cells in a 20× dilution scheme by adding 5 μL of serially diluted compound to the plate, and the treated cells were incubated for an additional 7 days in a 37° C., 5% CO2 incubator. DMSO was used as the negative control (0% effect), and wells omitting cells were used as the positive control (100% effect). The cells were incubated for seven days, and cell viability determined via the Promega Cell Titre-Glo® Assay kit. Luminescence units were converted to ATP concentrations via an ATP standard curve (10 point, 2-fold dilution from 5 uM). % Inhibition was calculated for each well as: ([max−min]−[test−min])/[max−min]. IC50 values were calculated from concentration vs. % Inhibition data via a four-parameter variable slope model.

[5] = system: HCC15 tumor cells implanted in SCID Beige mice; experiment: In vivo activity, HCC15 tumor xenograft, tumor growth inhibition; set-up: species or system mouse; settings: HCC15 model
Method: as §1, §2, §3, §4, §5, §6

[6] = molecular target: KIF18a-Microtubule Complex (Homo sapiens (Human), UniProt Q8NI77); experiment: Binding kinetics to KIF18a-microtubule complex (global progress curve analysis); settings: for kon (on-rate from binding kinetics assay) / koff (off-rate from binding kinetics assay): global progress curve analysis; for pKi: read-out: KI (determined from binding kinetic assay koff/kon), koff/kon; for koff: read-out: koff (off-rate from binding kinetics assay)
KIF18a-Microtubule Complex, sequence (Q8NI77 whole entry, looked up): as the sequence (Q8NI77 whole entry, looked up) above
KIF18a-Microtubule Complex, sequence (Q2XVP4 whole entry partner, looked up): as the sequence (Q2XVP4 whole entry partner, looked up) above
KIF18a-Microtubule Complex, sequence (P02554 whole entry partner, looked up): as the sequence (P02554 whole entry partner, looked up) above
Procedure, shortened: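 kon and koff determined by global progress curve analysis, with ADP formation measured by ADP-Glo. Time- and dose-dependent progress curves were globally fitted to a Michaelis-Menten model with one-step slow-binding inhibition.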

[7] = system: JIMT-1 cells; experiment: Cell viability of KIF18a-sensitive cell lines, JIMT-1 (Cell Titre-Glo, 7 days); type: cell-based; settings: JIMT-1 cells, 7 days, Cell Titre-Glo, read-out: JIMT-1 IC50
Method: as §7, §8, §9

[8] = KIF18A microtubule-dependent ATPase activity, biochemical assay

Structure (SMILES): COc1ccc(C(=O)N2CC3(CCC4(CC4)CC3)c3cc(NS(C)(=O)=O)ccc32)cc1S(=O)(=O)NC(C)(C)C [Compound 297, N-(tert-butyl)-2-methoxy-5-(5″-(methylsulfonamido)dispiro[cyclopropane-1,1′-cyclohexane-4′,3″-indoline]-1″-carbonyl)benzenesulfonamide]
pIC50 [1, 8]: 7.77 | pIC50 ([2]; HCC15, 168 h): 7.96 | pIC50 ([4]; Homo sapiens, OVCAR-3, 168 h): 8.00 | kon (on-rate from binding kinetics assay) [6]: 10300 M⁻¹ s⁻¹ | disc. t1/2 (dissociation half-life ln(2)/koff) [6]: 49 h | pKi [6]: 9.42 | koff [6]: 3.89e-06 s⁻¹ | pIC50 ([7]; Homo sapiens, 168 h): 8.01

Structure (SMILES): CS(=O)(=O)Nc1ccc2c(c1)C1(CCC3(CC3)CC1)CN2C(=O)c1cccc(S(=O)(=O)N2CC(F)(F)C2)c1 [Compound 257, N-(1″-(3-((3,3-difluoroazetidin-1-yl)sulfonyl)benzoyl)dispiro[cyclopropane-1,1′-cyclohexane-4′,3″-indolin]-5″- yl)methanesulfonamide]
pIC50 [1, 8]: 8.08 | pIC50 ([2]; HCC15, 168 h): 7.68 | pIC50 ([4]; Homo sapiens, OVCAR-3, 168 h): 7.68 | kon (on-rate from binding kinetics assay) [6]: 18300 M⁻¹ s⁻¹ | disc. t1/2 (dissociation half-life ln(2)/koff) [6]: 10 h | pKi [6]: 9.02 | koff [6]: 1.86e-05 s⁻¹ | pIC50 ([7]; Homo sapiens, 168 h): 7.92

Structure (SMILES): CS(=O)(=O)Nc1ccc2c(c1)C1(CCC3(CC3)CC1)CN2C(=O)c1cccc(S(=O)(=O)NC2CC(F)(F)C2)c1 [Compound 192, N-(3,3-difluorocyclobutyl)-3-(5″- (methylsulfonamido)dispiro[cyclopropane-1,1′-cyclohexane-4′,3″-indoline]-1″-carbonyl)benzenesulfonamide]
pIC50 [1, 8]: 8.00 | pIC50 ([2]; HCC15, 168 h): 6.29 | pIC50 ([4]; Homo sapiens, OVCAR-3, 168 h): 6.39 | kon (on-rate from binding kinetics assay) [6]: 14400 M⁻¹ s⁻¹ | disc. t1/2 (dissociation half-life ln(2)/koff) [6]: 21 h | pKi [6]: 9.19 | koff [6]: 9.17e-06 s⁻¹ | pIC50 ([7]; Homo sapiens, 168 h): 6.30

Structure (SMILES): CS(=O)(=O)Nc1ccc2c(c1)C1(CCC3(CC3)CC1)CN2C(=O)c1cccc([C@@H](O)CC2CCC2)c1 (single isomer, unassigned) [Compound 305a]
pIC50 [1, 8]: 8.09 | pIC50 [2]: 7.13 | pIC50 [4]: 7.05 | koff (off-rate from binding kinetics assay) [6]: 0.000361 s⁻¹ | kon (on-rate from binding kinetics assay) [6]: 97200 M⁻¹ s⁻¹ | disc. t1/2 (dissociation half-life ln(2)/koff) [6]: 0.56 h | pKi [6]: 8.46 | pIC50 [7]: 7.28

Structure (SMILES): CS(=O)(=O)Nc1ccc2c(c1)C1(CCC3(CC3)CC1)CN2C(=O)c1cccc([C@H](O)CC2CCC2)c1 (single isomer, unassigned) [Compound 305b]
pIC50 [1, 8]: 8.17 | pIC50 [2]: 7.22 | pIC50 [4]: 7.16 | koff (off-rate from binding kinetics assay) [6]: 0.000389 s⁻¹ | kon (on-rate from binding kinetics assay) [6]: 106000 M⁻¹ s⁻¹ | disc. t1/2 (dissociation half-life ln(2)/koff) [6]: 0.49 h | pKi [6]: 8.43 | pIC50 [7]: 7.40

Structure (SMILES): CCS(=O)(=O)Nc1ccc2c(c1)C1(CCC3(CC3)CC1)CN2C(=O)c1cccc(S(=O)(=O)N2CC3(CCO3)C2)c1 [Compound 320, N-(1″-(3-((1-oxa-6-azaspiro[3.3]heptan-6-yl)sulfonyl)benzoyl)dispiro[cyclopropane-1,1′-cyclohexane-4′,3″-indolin]-5″- yl)ethanesulfonamide]
pIC50 [1, 8]: 7.74 | pIC50 ([2]; HCC15, 168 h): 7.68 | pIC50 ([4]; Homo sapiens, OVCAR-3, 168 h): 7.70 | kon (on-rate from binding kinetics assay) [6]: 7500 M⁻¹ s⁻¹ | disc. t1/2 (dissociation half-life ln(2)/koff) [6]: 45 h | pKi [6]: 9.24 | koff [6]: 4.17e-06 s⁻¹ | pIC50 ([7]; Homo sapiens, 168 h): 7.85

Continued by rising pIC50 [1, 8], values first:

pIC50 [1, 8]: 7.68 | pIC50 ([2]; HCC15, 168 h): 7.37 | pIC50 ([4]; Homo sapiens, OVCAR-3, 168 h): 7.40 | kon (on-rate from binding kinetics assay) [6]: 10300 M⁻¹ s⁻¹ | disc. t1/2 (dissociation half-life ln(2)/koff) [6]: 5.7 h | pKi [6]: 8.48 | koff [6]: 3.33e-05 s⁻¹
Structure (SMILES): CS(=O)(=O)Nc1ccc2c(c1)C1(CCC3(CC3)CC1)CN2C(=O)c1cccc(S(=O)(=O)C2CC(F)(F)C2)c1 [Compound 322, N-(1″-(3-((3,3-difluorocyclobutyl)sulfonyl)benzoyl)dispiro[cyclopropane-1,1′-cyclohexane-4′,3″-indolin]-5″- yl)methanesulfonamide]
pIC50 ([7]; Homo sapiens, 168 h): 7.49

pIC50 [1, 8]: 7.80 | pIC50 ([2]; HCC15, 168 h): 8.29 | pIC50 ([4]; Homo sapiens, OVCAR-3, 168 h): 8.29 | kon (on-rate from binding kinetics assay) [6]: 15000 M⁻¹ s⁻¹ | disc. t1/2 (dissociation half-life ln(2)/koff) [6]: 40 h | pKi [6]: 9.47 | koff [6]: 5e-06 s⁻¹
Structure (SMILES): CCS(=O)(=O)Nc1ccc2c(c1)C1(CCC3(CC3)CC1)CN2C(=O)c1cccc(S(=O)(=O)NC(C)(C)C)c1 [Compound 134, N-(tert-butyl)-3-(5″-(ethylsulfonamido)dispiro[cyclopropane-1,1′-cyclohexane-4′,3″-indoline]-1″-carbonyl)benzenesulfonamide]
TGI ([3]; 10 mg/kg BID PO): 60 ± 17% | TGI ([3]; 30 mg/kg BID PO, subfigure 1D): 111 ± 1% | TGI ([3]; 30 mg/kg BID PO, subfigure printed 1R): 110 ± 1% | TGI ([3]; 30 mg/kg QD PO): 104 ± 7% | TGI ([3]; 60 mg/kg BID PO): 112 ± 1% | TGI ([3]; 60 mg/kg QD PO): 109 ± 2% | TGI ([5]; 10 mg/kg BID PO): 61 ± 10% | TGI ([5]; 30 mg/kg BID PO): 89 ± 7% | TGI ([5]; 60 mg/kg BID PO): 94 ± 5% | pIC50 ([7]; Homo sapiens, 168 h): 8.40

pIC50 [1]: 8.03 | pIC50 [1, 8]: 7.96 | pIC50 ([2]; HCC15, 168 h): 7.96 | pIC50 ([4]; Homo sapiens, OVCAR-3, 168 h): 8.01 | kon (on-rate from binding kinetics assay) [6]: 10600 M⁻¹ s⁻¹ | disc. t1/2 (dissociation half-life ln(2)/koff) [6]: 38 h | pKi [6]: 9.26 | koff [6]: 5e-06 s⁻¹
Structure (SMILES): CC(C)(C)NS(=O)(=O)c1cccc(C(=O)N2CC3(CCC4(CC4)CC3)c3cc(NS(C)(=O)=O)ccc32)c1 [Compound 22, N-(tert-butyl)-3-(5″- (methylsulfonamido)dispiro[cyclo-propane-1,1′-cyclohexane-4′,3″-indoline]-1″-carbonyl)benzenesulfonamide]
TGI ([3]; 10 mg/kg QD PO): 24 ± 26% | TGI ([3]; 30 mg/kg QD PO): 72 ± 17% | TGI ([3]; 60 mg/kg QD PO): 82 ± 10% | TGI ([5]; 10 mg/kg BID PO): 30 ± 15% | TGI ([5]; 30 mg/kg BID PO): 72 ± 6% | TGI ([5]; 60 mg/kg BID PO): 82 ± 9% | pIC50 ([7]; Homo sapiens, 168 h): 8.11

pIC50 [1, 8]: 8.17 | pIC50 ([2]; HCC15, 168 h): 7.68 | pIC50 ([4]; Homo sapiens, OVCAR-3, 168 h): 7.70 | kon (on-rate from binding kinetics assay) [6]: 6390 M⁻¹ s⁻¹ | disc. t1/2 (dissociation half-life ln(2)/koff) [6]: 7.9 h | pKi [6]: 9.59 | koff [6]: 2.44e-05 s⁻¹
Structure (SMILES): CS(=O)(=O)Nc1ccc2c(c1)C1(CCC3(CC3)CC1)CN2C(=O)c1cccc(S(=O)(=O)NC23CC(C2)C3)c1 [Compound 223, N-(bicyclo[1.1.1]pentan-1-yl)-3-(5″-(methylsulfonamido)dispiro[cyclopropane-1,1′-cyclohexane-4′,3″-indoline]-1″-carbonyl)benzenesulfonamide]
pIC50 ([7]; Homo sapiens, 168 h): 7.82
